In ChEMBL document CHEMBL3392963, “Piperazine derivatives: synthesis, inhibition of the Mycobacterium tuberculosis enoyl-acyl carrier protein reductase and SAR studies” (Eur J Med Chem, 2015):
≈ marks a conversion by molar mass, not a printed value. Calls of active or inactive are those of the source. The rule behind the calls is not given here.

Tests used:
[1] = target: T1, Enoyl-[acyl-carrier-protein] reductase [NADH] (Mycobacterium tuberculosis) (UniProt P9WGR1)
T1 sequence (whole entry): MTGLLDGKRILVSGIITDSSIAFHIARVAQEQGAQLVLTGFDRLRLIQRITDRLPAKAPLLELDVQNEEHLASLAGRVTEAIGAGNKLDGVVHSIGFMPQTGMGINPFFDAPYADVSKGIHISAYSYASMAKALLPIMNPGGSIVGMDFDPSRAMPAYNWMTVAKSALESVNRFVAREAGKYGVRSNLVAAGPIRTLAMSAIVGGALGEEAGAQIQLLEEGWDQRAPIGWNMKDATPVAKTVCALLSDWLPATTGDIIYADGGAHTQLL
Description: Non-competitive inhibition of Mycobacterium tuberculosis recombinant InhA assessed as inhibitory dissociation constant for the enzyme-inhibitor complex by measuring NADH oxidation to NAD+ using varying 2-trans-dodecenoyl-CoA substrate and fixed NADH levels by UV/visible spectrophotometry

[2] = target: T1, Enoyl-[acyl-carrier-protein] reductase [NADH] (Mycobacterium tuberculosis); remark: listed apart in the source
Description: Uncompetitive inhibition of Mycobacterium tuberculosis recombinant InhA assessed as inhibitory dissociation constant for the enzyme-substrate-inhibitor complex by measuring NADH oxidation to NAD+ using fixed 2-trans-dodecenoyl-CoA substrate and varying NADH levels by UV/visible spectrophotometry

[3] = target: T1, Enoyl-[acyl-carrier-protein] reductase [NADH] (Mycobacterium tuberculosis); remark: listed apart in the source
Description: Non-competitive inhibition of Mycobacterium tuberculosis recombinant InhA assessed as inhibitory dissociation constant for the enzyme-substrate-inhibitor complex by measuring NADH oxidation to NAD+ using varying 2-trans-dodecenoyl-CoA substrate and fixed NADH levels by UV/visible spectrophotometry

[4] = target: T1, Enoyl-[acyl-carrier-protein] reductase [NADH] (Mycobacterium tuberculosis); remark: listed apart in the source
Description: Inhibition of Mycobacterium tuberculosis recombinant InhA assessed as NADH oxidation to NAD+ at 0.2 uM using 2-trans-dodecenoyl-CoA substrate measured up to 30 mins by UV/visible spectrophotometry

[5] = target: T2, Enoyl-[acyl-carrier-protein] reductase [NADH] (Mycobacterium tuberculosis, UniProt P9WGR1); assay: Inhibition of Mycobacterium tuberculosis recombinant InhA assessed as NADH oxidation to NAD+ using 2-trans-dodecenoyl-CoA substrate by UV/visible spectrophotometry
T2 sequence (P9WGR1 whole entry): T1 sequence (whole entry)

[6] = test system: Mycobacterium tuberculosis; assay: Antimycobacterial activity against Mycobacterium tuberculosis H37Rv assessed as inhibition of mycobacterial growth after 7 days by REMA method; conditions: 168 h
[7] = target: T1, Enoyl-[acyl-carrier-protein] reductase [NADH] (Mycobacterium tuberculosis); remark: listed apart in the source
Description: Competitive inhibition of Mycobacterium tuberculosis recombinant InhA assessed as inhibitory dissociation constant for the enzyme-inhibitor complex by measuring NADH oxidation to NAD+ using varying 2-trans-dodecenoyl-CoA substrate and fixed NADH levels by UV/visible spectrophotometry

In the case of `COc1ccc(C(=O)N2CCN(C3c4ccccc4-c4ccccc43)CC2)cc1`, the Kis [1] is reported as 1.6 µM, the Kii [2] is reported as 1.95 µM and the Kii [3] is reported as 7.22 µM. The TDI [4] was “inactive” and the IC50 [5] was 2.9 µM.
Work on `O=C(c1ccccc1)N1CCN(C2c3ccccc3-c3ccccc32)CC1` yielded an MIC [6] of over 35.2 µM and an IC50 [5] of 0.183 µM.
`O=C(c1cc(F)ccc1F)N1CCN(C(c2ccccc2)c2ccccc2)CC1` showed an IC50 [5] of over 50 µM.
Molecule `O=C(c1ccc(F)cc1)N1CCN(C2c3ccccc3-c3ccccc32)CC1` has an MIC [6] of 67.8 µM (≈ 25.3 µg/mL), a Kii [2] of 0.348 µM and a Kis [7] of 0.338 µM. For the same molecule, the TDI [4] was “inactive” and the IC50 [5] was 0.397 µM.
In the case of `O=C(/C=C/c1ccccc1)N1CCN(C2c3ccccc3-c3ccccc32)CC1`, the IC50 [5] is reported as over 50 µM.
For `O=C(c1ccccc1)N1CCN(C(c2ccccc2)c2ccccc2)CC1`, the IC50 [5] was 16 µM.
Molecule `Cc1ccc(C(=O)N2CCN(C3c4ccccc4-c4ccccc43)CC2)cc1` has an MIC [6] of 67.8 µM (≈ 25 µg/mL) and an IC50 [5] of 0.222 µM.
For `Cc1ccc(C(=O)N2CCN(C(c3ccccc3)c3ccccc3)CC2)cc1`, the IC50 [5] was 7.83 µM.
Molecule `O=C(c1cccc(F)c1)N1CCN(C2c3ccccc3-c3ccccc32)CC1` has an MIC [6] of over 16.1 µM, a Kii [2] of 0.147 µM and a Kis [7] of 0.118 µM. The TDI [4] was “inactive” and the IC50 [5] was 0.24 µM.
Work on `O=C(CN1CCN(C2c3ccccc3-c3ccccc32)CC1)Nc1ccccc1` yielded an IC50 [5] of over 50 µM.
`Cc1ccccc1S(=O)(=O)N1CCN(C2c3ccccc3-c3ccccc32)CC1` showed an IC50 [5] of over 50 µM.
In the case of `O=C(c1ccc(Cl)cc1)N1CCN(C(c2ccccc2)c2ccccc2)CC1`, the IC50 [5] is reported as over 50 µM.
Work on `O=C(/C=C/c1ccccc1)N1CCN(C(c2ccccc2)c2ccccc2)CC1` yielded an IC50 [5] of over 50 µM.
With `O=S(=O)(c1ccccc1)N1CCN(C(c2ccccc2)c2ccccc2)CC1` the IC50 [5] was over 50 µM.
`O=C(c1ccccc1F)N1CCN(C2c3ccccc3-c3ccccc32)CC1` gave a Kis [1] of 0.149 µM, an MIC [6] of over 16.1 µM and a Kii [2] of 0.332 µM. For the same molecule, the Kii [3] was 0.66 µM, the TDI [4] was “inactive” and the IC50 [5] was 0.361 µM.
With `O=C(c1cc(F)ccc1F)N1CCN(C2c3ccccc3-c3ccccc32)CC1` the Kis [1] was 0.788 µM, the MIC [6] was over 15.3 µM and the Kii [2] was 1.28 µM. For the same molecule, the Kii [3] was 3.25 µM, the TDI [4] was “inactive” and the IC50 [5] was 1.57 µM.
For `O=C(c1ccncc1)N1CCN(C2c3ccccc3-c3ccccc32)CC1`, the IC50 [5] was 9.77 µM.
`COc1ccc(C(=O)N2CCN(C(c3ccccc3)c3ccccc3)CC2)cc1` showed an IC50 [5] of over 50 µM.
In the case of `O=S(=O)(c1ccccc1)N1CCN(C2c3ccccc3-c3ccccc32)CC1`, the IC50 [5] is reported as 20 µM.
Molecule `O=C(c1ccc([N+](=O)[O-])cc1)N1CCN(C2c3ccccc3-c3ccccc32)CC1` has an IC50 [5] of over 50 µM.
`Cc1ccccc1C(=O)N1CCN(C2c3ccccc3-c3ccccc32)CC1` showed an IC50 [5] of 5.99 µM.
For `O=C(c1ccc(Cl)cc1)N1CCN(C2c3ccccc3-c3ccccc32)CC1`, the Kis [1] was 2.77 µM, the Kii [2] was 1.12 µM and the Kii [3] was 2 µM. The TDI [4] was “inactive” and the IC50 [5] was 1.69 µM.
For `Cc1cccc(C(=O)N2CCN(C3c4ccccc4-c4ccccc43)CC2)c1`, the Kis [1] was 0.162 µM, the MIC [6] was over 16.2 µM and the Kii [2] was 0.185 µM. For the same molecule, the Kii [3] was 0.348 µM, the TDI [4] was “inactive” and the IC50 [5] was 0.25 µM.
For `O=C(c1ccc(F)cc1)N1CCN(C(c2ccccc2)c2ccccc2)CC1`, the IC50 [5] was over 50 µM.
Molecule `c1ccc(CN2CCN(C3c4ccccc4-c4ccccc43)CC2)cc1` has an IC50 [5] of over 50 µM.
